Measurements reported in PMC9551036, “A selective and orally bioavailable VHL-recruiting PROTAC achieves SMARCA2 degradation in vivo” (Nature Communications, 2022).
Several values for one entry are separate records, joined by “and”; a condition that tells them apart may be missing. Identical values can stand only once. Like-named read-outs stand apart in the source and are kept apart here.

Legend:
[1] = target: VCB: PROTAC: SMARCA4^BD ternary complex (Homo sapiens, UniProt P40337+P51532); test: TR-FRET ternary complex affinity and cooperativity, SMARCA4; type: binding; parameters: P51532, residues 1448–1569 with additional N-terminal SM residues; GST (TEV site) (N); His6 (TEV site) (N, cleaved yes); made in house; host or cells: SMARCA4^BD: Escherichia coli BL21(DE3)
VCB: PROTAC: SMARCA4^BD ternary complex, sequence (P51532 1448-1569): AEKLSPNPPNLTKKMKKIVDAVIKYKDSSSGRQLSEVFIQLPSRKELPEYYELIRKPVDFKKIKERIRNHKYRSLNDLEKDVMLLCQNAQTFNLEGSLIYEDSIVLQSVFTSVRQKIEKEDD
VCB: PROTAC: SMARCA4^BD ternary complex, sequence (P40337 54-213): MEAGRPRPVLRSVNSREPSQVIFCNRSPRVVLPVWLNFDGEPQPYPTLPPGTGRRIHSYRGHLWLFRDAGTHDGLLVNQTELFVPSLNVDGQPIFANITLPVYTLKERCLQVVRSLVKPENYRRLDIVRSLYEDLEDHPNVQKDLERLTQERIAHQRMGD
VCB: PROTAC: SMARCA4^BD ternary complex, sequence (Q15369 17-112 partner): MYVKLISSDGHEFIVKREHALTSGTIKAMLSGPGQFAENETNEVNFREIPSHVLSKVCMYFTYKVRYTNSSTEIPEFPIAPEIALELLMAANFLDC
VCB: PROTAC: SMARCA4^BD ternary complex, sequence (Q15370 1-104 partner): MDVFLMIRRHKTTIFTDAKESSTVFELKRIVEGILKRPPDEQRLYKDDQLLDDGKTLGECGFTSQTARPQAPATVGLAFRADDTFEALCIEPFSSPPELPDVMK

SMARCA4 = SMARCA4 (Homo sapiens, UniProt P51532); test: SMARCA4 capillary electrophoresis protein assay in RKO cells; type: cell-based; parameters: endogenous in cells; host or cells: RKO, HCT116, LU99, HCC-364, HCT-15, HCC4006, SK-N-AS
SMARCA4, sequence (P51532 whole entry): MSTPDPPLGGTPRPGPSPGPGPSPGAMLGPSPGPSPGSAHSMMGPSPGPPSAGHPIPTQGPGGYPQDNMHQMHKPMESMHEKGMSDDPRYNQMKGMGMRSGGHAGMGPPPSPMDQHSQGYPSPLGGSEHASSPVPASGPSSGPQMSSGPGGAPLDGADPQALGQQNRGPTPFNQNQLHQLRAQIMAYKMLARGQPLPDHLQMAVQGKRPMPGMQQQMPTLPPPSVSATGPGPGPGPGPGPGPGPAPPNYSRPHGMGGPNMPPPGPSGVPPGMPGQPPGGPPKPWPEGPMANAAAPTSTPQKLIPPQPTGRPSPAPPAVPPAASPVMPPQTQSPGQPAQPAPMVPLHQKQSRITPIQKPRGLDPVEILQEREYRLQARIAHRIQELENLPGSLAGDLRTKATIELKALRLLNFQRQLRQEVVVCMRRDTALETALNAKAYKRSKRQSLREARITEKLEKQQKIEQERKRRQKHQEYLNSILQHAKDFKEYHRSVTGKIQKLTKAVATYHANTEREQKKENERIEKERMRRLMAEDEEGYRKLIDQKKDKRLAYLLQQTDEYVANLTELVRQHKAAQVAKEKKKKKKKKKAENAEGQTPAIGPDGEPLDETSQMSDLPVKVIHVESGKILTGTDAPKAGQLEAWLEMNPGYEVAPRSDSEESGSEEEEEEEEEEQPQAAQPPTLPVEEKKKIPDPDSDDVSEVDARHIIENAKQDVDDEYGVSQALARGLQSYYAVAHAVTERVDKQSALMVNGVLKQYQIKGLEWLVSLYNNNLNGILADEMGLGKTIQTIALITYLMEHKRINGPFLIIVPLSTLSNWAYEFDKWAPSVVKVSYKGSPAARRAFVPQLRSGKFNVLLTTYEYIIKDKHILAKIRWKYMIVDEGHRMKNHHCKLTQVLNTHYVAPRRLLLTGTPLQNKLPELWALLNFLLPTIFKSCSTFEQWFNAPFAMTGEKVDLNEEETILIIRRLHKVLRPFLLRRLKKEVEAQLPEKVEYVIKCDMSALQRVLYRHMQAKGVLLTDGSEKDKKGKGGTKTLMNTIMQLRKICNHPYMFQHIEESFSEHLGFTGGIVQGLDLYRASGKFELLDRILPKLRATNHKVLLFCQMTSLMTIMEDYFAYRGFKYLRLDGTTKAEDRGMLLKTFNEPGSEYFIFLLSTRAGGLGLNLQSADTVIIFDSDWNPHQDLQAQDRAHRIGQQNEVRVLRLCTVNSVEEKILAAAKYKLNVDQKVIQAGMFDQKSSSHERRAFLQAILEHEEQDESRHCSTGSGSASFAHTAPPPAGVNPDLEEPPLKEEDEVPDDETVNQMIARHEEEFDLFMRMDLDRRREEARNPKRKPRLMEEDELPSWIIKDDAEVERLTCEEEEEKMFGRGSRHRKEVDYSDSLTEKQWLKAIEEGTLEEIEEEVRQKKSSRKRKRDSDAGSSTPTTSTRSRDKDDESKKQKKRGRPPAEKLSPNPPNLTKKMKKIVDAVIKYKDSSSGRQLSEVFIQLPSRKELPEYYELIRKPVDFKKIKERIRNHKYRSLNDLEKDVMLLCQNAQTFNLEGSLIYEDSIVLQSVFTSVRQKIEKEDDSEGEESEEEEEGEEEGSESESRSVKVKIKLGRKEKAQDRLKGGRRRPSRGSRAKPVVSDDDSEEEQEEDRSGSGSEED
Protocol: (§1) 130,000–200,000 cells were seeded in 24-well plates and incubated until settled down or overnight. Compounds were dissolved in DMSO and added to cells in indicated concentrations using a digital dispenser following an optional media change. Cells were incubated for 4 or 18 h as indicated. For SMARCA2/4 half-life determination, 150,000 or 200,000 cells were seeded in 24-well plates. The next day, 50 µg/ml cycloheximide (Sigma) was added and cells were incubated for 1–24 h. For SMARCA2/4 re-synthesis measurements, 200,000 cells were seeded in 24-well plates. The next day, 100 nM compound 6 was added for 4 h to degrade SMARCA2/4, and a sample was taken as baseline for normalisation. To allow re-synthesis, a VHL binder (compound 32, 25 or 50 µM) was then added for 3 or 24 h. Medium was removed, cells were washed with PBS and lysed with 80 µl Lysis Buffer (MSD Tris Lysis Buffer (#R60TX-2) + Halt Inhibitor Cocktail (100x) + Benzonase 0.5 µL/ml). Samples were frozen at −80 °C and thawed at room temperature before use. Samples were transferred to a V-bottom plate and insoluble debris was pelleted by centrifugation for 5 min at maximum speed. The supernatant was transferred to a fresh plate. Master Mix and Ladder were prepared according to manufacturer’s instructions for 12–230 kDa Wes Separation Module, 8 × 25 capillary cartridges, Protein Simple #SM-W004 with Anti-Rabbit Detection Module for Wes, Peggy Sue or Sally Sue, Protein Simple #DM-001. 4.8 µl lysate were mixed with 1.2 µl Master Mix to achieve a protein concentration of ~0.5 µg/µl. Antibodies were diluted in Antibody Diluent II (SMARCA2 Sigma #HPA029981 RRID:AB_10602406 1:25–100, SMARCA4 Cell Signalling #49360 clone D1Q7F RRID:AB_2728743 1:15–120 or Abcam #ab110641 clone EPNCIR111A RRID:AB_10861578 1:60, GAPDH Abcam #ab9485 RRID:AB_307275 1:250). Wes plates were prepared and run according to manufacturer’s instructions. Proteins were quantified with accompanying Compass Software. SMARCA2/4 protein levels were normalised to GAPDH. […] Where applicable, curves were fitted using a 4-parametric logistic model.

PBRM1BD5 = target: T1, PBRM1BD5 (Homo sapiens, UniProt Q86U86); test: TR-FRET ternary complex affinity and cooperativity, PBRM1; type: binding
T1 construct: GST (TEV site) (N); His6 (TEV site) (N, cleaved yes); made in house; host or cells: PBRM1^BD5: Escherichia coli BL21(DE3)
T1 sequence (Q86U86 645-766): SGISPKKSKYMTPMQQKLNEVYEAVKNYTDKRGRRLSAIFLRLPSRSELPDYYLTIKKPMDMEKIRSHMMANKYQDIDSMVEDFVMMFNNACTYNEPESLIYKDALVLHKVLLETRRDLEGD

SMARCA2 = SMARCA2 (Homo sapiens, UniProt P51531); test: SMARCA2 capillary electrophoresis protein assay in RKO cells; type: cell-based; parameters: endogenous in cells; host or cells: RKO, NCI-H1568, A549, HCT116, LU99, HCC-364, HCT-15, HCC4006, SK-N-AS
SMARCA2, sequence (P51531 whole entry): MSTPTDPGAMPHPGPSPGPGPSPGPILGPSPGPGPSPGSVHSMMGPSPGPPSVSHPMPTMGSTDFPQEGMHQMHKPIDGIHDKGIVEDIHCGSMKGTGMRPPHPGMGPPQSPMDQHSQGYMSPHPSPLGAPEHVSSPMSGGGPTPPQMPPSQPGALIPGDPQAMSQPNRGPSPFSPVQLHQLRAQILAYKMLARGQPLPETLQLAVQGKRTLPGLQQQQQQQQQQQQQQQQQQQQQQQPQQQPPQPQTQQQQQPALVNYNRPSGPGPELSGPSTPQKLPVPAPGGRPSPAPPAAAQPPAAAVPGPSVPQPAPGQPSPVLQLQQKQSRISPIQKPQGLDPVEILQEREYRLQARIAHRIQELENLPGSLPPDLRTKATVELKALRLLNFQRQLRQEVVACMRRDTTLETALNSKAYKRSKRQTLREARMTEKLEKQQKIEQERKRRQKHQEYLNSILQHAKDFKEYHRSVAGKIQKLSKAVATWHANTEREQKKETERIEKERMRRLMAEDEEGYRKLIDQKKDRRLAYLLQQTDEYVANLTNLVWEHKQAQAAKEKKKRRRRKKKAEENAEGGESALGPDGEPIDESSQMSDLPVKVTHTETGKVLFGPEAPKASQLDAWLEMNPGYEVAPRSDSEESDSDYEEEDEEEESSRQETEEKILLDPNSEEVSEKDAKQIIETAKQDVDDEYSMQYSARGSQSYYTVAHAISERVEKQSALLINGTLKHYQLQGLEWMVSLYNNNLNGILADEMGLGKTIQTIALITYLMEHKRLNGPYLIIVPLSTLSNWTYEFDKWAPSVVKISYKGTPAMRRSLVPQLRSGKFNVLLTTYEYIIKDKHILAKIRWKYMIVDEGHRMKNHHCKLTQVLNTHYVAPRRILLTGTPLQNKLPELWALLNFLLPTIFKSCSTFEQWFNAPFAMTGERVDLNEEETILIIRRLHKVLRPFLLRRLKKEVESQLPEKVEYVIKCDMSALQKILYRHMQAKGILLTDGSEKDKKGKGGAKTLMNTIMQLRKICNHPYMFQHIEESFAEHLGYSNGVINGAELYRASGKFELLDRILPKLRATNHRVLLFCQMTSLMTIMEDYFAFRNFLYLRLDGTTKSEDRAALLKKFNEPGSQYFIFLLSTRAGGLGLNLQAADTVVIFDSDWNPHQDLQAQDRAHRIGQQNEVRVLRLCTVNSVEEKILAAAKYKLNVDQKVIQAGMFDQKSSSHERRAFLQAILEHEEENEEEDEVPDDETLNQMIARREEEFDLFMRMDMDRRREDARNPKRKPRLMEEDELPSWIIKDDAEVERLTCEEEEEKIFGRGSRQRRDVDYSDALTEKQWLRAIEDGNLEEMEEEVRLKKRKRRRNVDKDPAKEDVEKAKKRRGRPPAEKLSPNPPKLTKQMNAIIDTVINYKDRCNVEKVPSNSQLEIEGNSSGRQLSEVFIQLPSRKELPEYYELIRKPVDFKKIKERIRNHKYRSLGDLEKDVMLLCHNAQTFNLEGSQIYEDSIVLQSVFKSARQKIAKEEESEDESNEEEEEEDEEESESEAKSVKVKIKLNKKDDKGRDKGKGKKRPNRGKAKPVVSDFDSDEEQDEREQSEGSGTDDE
Protocol: as §1, with “Cells were incubated for 4 or 18 h as indicated.” left out, “The next day, 50 µg/ml cycloheximide (Sigma) was added and cells were incubated for 1–24 h.” left out, “The next day, 100 nM compound 6 was added for 4 h to degrade SMARCA2/4, and a sample was taken as baseline for normalisation. To allow re-synthesis, a VHL binder (compound 32, 25 or 50 µM) was then added for 3 or 24 h.” left out, “Antibodies were diluted in Antibody Diluent II (SMARCA2 Sigma #HPA029981 RRID:AB_10602406 1:25–100, SMARCA4 Cell Signalling #49360 clone D1Q7F RRID:AB_2728743 1:15–120 or Abcam #ab110641 clone EPNCIR111A RRID:AB_10861578 1:60, GAPDH Abcam #ab9485 RRID:AB_307275 1:250).” left out

[2] = target: VCB: PROTAC: SMARCA2^BD ternary complex (Homo sapiens, UniProt P40337+P51531); test: TR-FRET ternary complex affinity and cooperativity, SMARCA2; type: binding; parameters: P51531-2, residues 1373-1493 with additional N-terminal SM residues; GST (TEV site) (N); His6 (TEV site) (N, cleaved yes); made in house; host or cells: SMARCA2^BD: Escherichia coli BL21(DE3)
VCB: PROTAC: SMARCA2^BD ternary complex, sequence (P51531 with tags, fused parts or gaps isoform P51531-2): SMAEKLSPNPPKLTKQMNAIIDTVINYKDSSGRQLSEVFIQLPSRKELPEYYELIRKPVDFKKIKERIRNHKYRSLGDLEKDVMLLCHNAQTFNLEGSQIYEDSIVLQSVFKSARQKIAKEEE
VCB: PROTAC: SMARCA2^BD ternary complex, sequence (P40337 54-213): as the sequence (P40337 54-213) above
VCB: PROTAC: SMARCA2^BD ternary complex, sequence (Q15369 17-112 partner): as the sequence (Q15369 17-112 partner) above
VCB: PROTAC: SMARCA2^BD ternary complex, sequence (Q15370 1-104 partner): as the sequence (Q15370 1-104 partner) above

[3] = PROTAC + VCB, individual replicates, read-out: Ternary SMARCA4 BD EC50 (PROTAC + VCB)
[4] = TR-FRET competition for PBRM1BD5, without VCB, mean ± SD, read-out: TR-FRET PBRM1BD EC50
[5] = PROTAC + VCB, individual replicates, read-out: Ternary SMARCA2 BD EC50 (PROTAC + VCB)
[6] = TR-FRET competition for SMARCA4BD, + VCB, mean ± SD, read-out: TR-FRET Ternary SMARCA4BD EC50 (PROTAC + VCB)
[7] = RKO cells, time not stated at the place (Supplementary Data 2)
[8] = TR-FRET competition for SMARCA2BD, + VCB, mean ± SD, read-out: TR-FRET Ternary SMARCA2BD EC50 (PROTAC + VCB)

CN1CCN(c2nc(=O)c3c(Cl)cccc3o2)CC1 [compound 13]
EC50 [1, 3]: > 10000 nM
DC50 (SMARCA4; RKO (4 h), mean ± SD): > 25000 nM
DC50 (SMARCA4; RKO (18 h), mean ± SD): > 25000 nM
EC50 (PBRM1BD5; [4]): > 10000 nM
DC50 (SMARCA2; RKO (4 h), mean ± SD): > 25000 nM
DC50 (SMARCA2; RKO (18 h), mean ± SD): > 25000 nM
EC50 [2, 5]: > 10000 nM

Cc1ncsc1-c1ccc(C(CCC(C)CCN2CCC(c3ccc4c(c3)n(C3CCCC3)c3nc(=O)c5c(Br)cccc5n43)CC2)NC(=O)C2CC(O)CN2C(=O)C(NC(=O)C2(F)CC2)C(C)(C)C)cc1 (stereo not shown) [ACBI2]
EC50 [1, 3]: 80.9 nM and 99.7 nM and 79.5 nM
EC50 [1, 6]: 86 ± 11 nM
DC50 (SMARCA4; RKO (4 h), mean ± SD): > 25000 nM
DC50 (SMARCA4; [7]): 32 nM
Dmax (SMARCA4; RKO, RKO (18 h), mean ± SD): 67 ± 8%
Bottom (% protein remaining, four-parameter fit) (SMARCA4; RKO, SM4): 39.28%
Top (% protein remaining, four-parameter fit) (SMARCA4; RKO, SM4): 143.4%
% protein remaining (SMARCA4; RKO, SM4, conc 9.54e-12 mol/l): 113.734% and 126.165%
% protein remaining (SMARCA4; RKO, SM4, conc 3.81e-11 mol/l): 121.614% and 148.911%
% protein remaining (SMARCA4; RKO, SM4, conc 1.53e-10 mol/l): 135.787% and 142.842%
% protein remaining (SMARCA4; RKO, SM4, conc 6.1e-10 mol/l): 143.182% and 145.479%
% protein remaining (SMARCA4; RKO, SM4, conc 2.44e-9 mol/l): 149.21% and 160.401%
% protein remaining (SMARCA4; RKO, SM4, conc 9.77e-9 mol/l): 171.8% and 162.178%
% protein remaining (SMARCA4; RKO, SM4, conc 3.91e-8 mol/l): 85.9345% and 100.013%
% protein remaining (SMARCA4; RKO, SM4, conc 1.56e-7 mol/l): 33.2702% and 37.8218%
% protein remaining (SMARCA4; RKO, SM4, conc 6.25e-7 mol/l): 30.6123% and 41.0571%
% protein remaining (SMARCA4; RKO, SM4, conc 2.5e-6 mol/l): 28.0108%
% protein remaining (SMARCA4; RKO, SM4, conc 1e-5 mol/l): 64.9119%
EC50 (PBRM1BD5): 67 ± 9 nM
DC50 (SMARCA2; RKO (4 h), mean ± SD): 4 ± 1 nM
window of SMARCA2 over SMARCA4 degradation (SMARCA2; RKO cells): > 30 fold
DC50 (SMARCA2; [7]): 1 nM
Dmax (SMARCA2; RKO, RKO (4 h), mean ± SD): 71 ± 2%
Dmax (SMARCA2; RKO, RKO (18 h), mean ± SD): 81 ± 7%
Bottom (% protein remaining, four-parameter fit) (SMARCA2; RKO, SM2): 21.72%
HillSlope (protein remaining) (SMARCA2; RKO, SM2): -0.9367
Top (% protein remaining, four-parameter fit) (SMARCA2; RKO, SM2): 158.8%
EC50 [2, 5]: 40 nM and 41.1 nM and 43.2 nM and 39.8 nM and 44 nM
EC50 [2, 8]: 42 ± 2 nM

CN1CCN(c2nc(=O)c3c(F)cccc3o2)CC1 [compound 17]
EC50 [1, 3]: > 10000 nM
DC50 (SMARCA4; RKO (4 h), mean ± SD): > 25000 nM
DC50 (SMARCA4; RKO (18 h), mean ± SD): > 25000 nM
EC50 (PBRM1BD5; [4]): > 10000 nM
DC50 (SMARCA2; RKO (4 h), mean ± SD): > 25000 nM
DC50 (SMARCA2; RKO (18 h), mean ± SD): > 25000 nM
EC50 [2, 5]: > 10000 nM

Cc1ncsc1-c1ccc([C@H](CC[C@H](C)CCN2CCC(c3ccc4c(c3)n(C3CCCC3)c3nc(=O)c5c(Br)cccc5n43)CC2)NC(=O)[C@@H]2C[C@H](O)CN2C(=O)[C@@H](NC(=O)C2(F)CC2)C(C)(C)C)cc1 [compound 12]
EC50 [1, 3]: > 400 nM and 385 nM and 314 nM
EC50 [1, 6]: 367 ± 38 nM
DC50 (SMARCA4; RKO (4 h), mean ± SD): > 25000 nM
DC50 (SMARCA4; RKO (18 h), mean ± SD): 5830 nM
Dmax (SMARCA4; RKO, RKO (18 h), mean ± SD): 94 ± 7%
EC50 (PBRM1BD5): 75 ± 6 nM
DC50 (SMARCA2; RKO (4 h), mean ± SD): > 25000 nM
Dmax (SMARCA2; RKO, RKO (18 h), mean ± SD): 82 ± 16%
EC50 [2, 5]: 148 nM and 161 nM and 256 nM and 158 nM
EC50 [2, 8]: 181 ± 44 nM

Cc1ncsc1-c1ccc(CNC(=O)[C@@H]2C[C@@H](O)CN2C(=O)[C@@H](NC(=O)C2(F)CC2)C(C)(C)C)c(OCCCCN2CCC(c3ccc4c(c3)n(C3CCCC3)c3nc(=O)c5c(Br)cccc5n43)CC2)c1 [compound 23]
EC50 [1, 3]: 165 nM and 215 nM and 180 nM and 280 nM
EC50 [1, 6]: 206 ± 51 nM
DC50 (SMARCA4; RKO (4 h), mean ± SD): > 25000 nM
DC50 (SMARCA4; RKO (18 h), mean ± SD): 1260 nM
SMARCA4 Dmax (SMARCA4; RKO (18 h), mean ± SD): 76 ± 30%
EC50 (PBRM1BD5; [4]): 39 ± 5 nM
DC50 (SMARCA2; RKO (4 h), mean ± SD): > 25000 nM
DC50 (SMARCA2; RKO (18 h), mean ± SD): 39 ± 10 nM
SMARCA2 Dmax (SMARCA2; RKO (18 h), mean ± SD): 37 ± 5%
EC50 [2, 5]: 115 nM and 127 nM and 132 nM and 372 nM
EC50 [2, 8]: 164 ± 124 nM

Cc1ncsc1-c1ccc([C@H](CCC(C)(C)CCN2CCC(c3ccc4c(c3)n(C3CCCC3)c3nc(=O)c5c(Br)cccc5n43)CC2)NC(=O)[C@@H]2C[C@@H](O)CN2C(=O)[C@@H](NC(=O)C2(F)CC2)C(C)(C)C)cc1 [compound 30]
EC50 [1, 3]: 88.3 nM and 118 nM and 113 nM
EC50 [1, 6]: 106 ± 16 nM
DC50 (SMARCA4; RKO (4 h), mean ± SD): > 25000 nM
DC50 (SMARCA4; RKO (18 h), mean ± SD): 73 ± 35 nM
SMARCA4 Dmax (SMARCA4; RKO (18 h), mean ± SD): 72 ± 7%
EC50 (PBRM1BD5; [4]): 131 ± 49 nM
DC50 (SMARCA2; RKO (4 h), mean ± SD): 8 ± 2 nM
SMARCA2 Dmax (SMARCA2; RKO (4 h), mean ± SD): 74 ± 5%
DC50 (SMARCA2; RKO (18 h), mean ± SD): 3 ± 1 nM
SMARCA2 Dmax (SMARCA2; RKO (18 h), mean ± SD): 82 ± 5%
EC50 [2, 5]: 45.6 nM and 53.2 nM and 68.1 nM and 44.6 nM and 46.9 nM
EC50 [2, 8]: 51 ± 10 nM

O=c1nc2n(C3CCCC3)c3ccccc3n2c2cccc(Br)c12 [compound 1]
EC50 [1, 3]: 824 nM and 894 nM and 817 nM
EC50 [1, 6]: 844 ± 42 nM
DC50 (SMARCA4; RKO (4 h), mean ± SD): > 25000 nM
DC50 (SMARCA4; RKO (18 h), mean ± SD): > 25000 nM
EC50 (PBRM1BD5; [4]): 134 ± 28 nM
DC50 (SMARCA2; RKO (4 h), mean ± SD): > 25000 nM
DC50 (SMARCA2; RKO (18 h), mean ± SD): > 25000 nM
EC50 [2, 5]: 381 nM and 365 nM and 425 nM
EC50 [2, 8]: 389 ± 31 nM
